Experimental findings from ChEMBL document CHEMBL1201862, “PubChem BioAssay data set” (2004) are described below.

Holding throughout (assay): growth of human tumour cells (NCI), 48 h
The test system of experiment [1] is ACHN.
Experiment [2] concerns CCRF-CEM.
Experiment [3] has as its system DU-145.
In experiment [4] the test system is EKVX.
Experiment [5] relates to HCT-15.
The test system of experiment [6] is HL-60.
The subject of experiment [7] is IGROV-1.
Experiment [8] has as its system K562.
In experiment [9] the test system is M14.
Experiment [10] has as its system MDA-MB-435.
The test system of experiment [11] is MOLT-4.
Experiment [12] deals with NCI-H522.
Experiment [13] concerns NCI/ADR-RES.
Experiment [14] concerns OVCAR-8.
Experiment [15] deals with PC-3.
Experiment [16] relates to RXF 393.
Experiment [17] concerns SF-268.
For experiment [18], the system named is SNB-19.
Experiment [19] relates to HOP-92.

Structures are written as SMILES.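 In this assay, cells in 96-well plates receive the compound at five concentrations for 48 hours. Endpoints are linearly interpolated between the surrounding concentrations. The concentration for 50% growth inhibition is given as GI50.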 Activity calls are given as the source filed them. No stated cut-off is given here; in the data, active = GI50 up to about 1.1 µM and inactive = higher. A value given as a limit tells only on which side of the number the result lay.

Regarding `COC(=O)c1c(C(=O)OC)c2ccccn2c1-c1cc(OC)c(Br)c(=O)o1`, the GI50 is > 100 µM (inactive) in experiment [1]; > 100 µM (inactive) in [2]; > 100 µM (inactive) in experiment [3]; > 100 µM (inactive) in [4]; over 100 µM in experiment [5]; > 100 µM (inactive) in experiment [6]. For the same molecule, the GI50 in experiment [7] was > 100 µM (inactive); in experiment [8], > 100 µM (inactive); in [9], > 100 µM (inactive); in experiment [10], > 100 µM (inactive); in [11] it was > 100 µM (inactive); in [12] it was 68.7 µM (inactive). Besides, the GI50 in [13], in experiment [14], in [15], in [16], in [17] and in experiment [18] was > 100 µM (inactive) throughout.
With `CSC(Cc1ccc2c(c1)Sc1ccccc1O2)=[N+]1CCOCC1`, the GI50 in [1] is 58.3 µM (inactive); in [3] it was > 100 µM (inactive); in experiment [4], 58.1 µM (inactive); in experiment [5], 43.5 µM; in [6], 37.9 µM (inactive); in [19], 48.5 µM (inactive). Also, the GI50 in experiment [7] was 48.6 µM (inactive); in experiment [8], 79.6 µM (inactive); in experiment [9], 72.9 µM (inactive); in experiment [10] it was 33 µM (inactive); in experiment [11], 35.7 µM (inactive); in experiment [13], 56.8 µM (inactive). Besides, the GI50 is 52.6 µM (inactive) in [14]; 44.7 µM (inactive) in experiment [15]; 37.6 µM (inactive) in [16]; 61.2 µM (inactive) in [17]; 83.9 µM (inactive) in [18].
In the case of `CCC(c1ccc(N(C)C)cc1)C1NC(=S)NC1=O` (configuration not stated), the GI50 was > 100 µM (inactive) in experiment [1]; 48.9 µM (inactive) in [2]; > 100 µM (inactive) in experiment [3]; 51.5 µM (inactive) in experiment [4]; 40.2 µM in experiment [5]; 17.5 µM (inactive) in experiment [6]. Moreover, the GI50 was > 100 µM (inactive) in [19]; 58.3 µM (inactive) in experiment [7]; 20.1 µM (inactive) in [8]; 74.8 µM (inactive) in experiment [9]; 34.4 µM (inactive) in experiment [10]; 30.7 µM (inactive) in [11]. Moreover, the GI50 in [12], in [13], in [14], in experiment [16], in [17] and in experiment [18] was > 100 µM (inactive) in each case.
On to `CCCCCCCC1(c2ccc(N)cc2)CCC(=O)NC1=O` (configuration not stated), for which the GI50 in [1] is 18.7 µM (inactive); in experiment [2], > 10 µM (inactive); in experiment [4] it was 23.5 µM (inactive); in experiment [5] it was 36.8 µM; in [6], 17 µM (inactive); in experiment [19], 15.2 µM (inactive). Also, the GI50 is 32.3 µM (inactive) in experiment [7]; 28.4 µM (inactive) in experiment [8]; 32.4 µM (inactive) in [9]; 23.8 µM (inactive) in experiment [11]; 27.2 µM (inactive) in experiment [12]; 35.8 µM (inactive) in experiment [14]. Further, the GI50 in experiment [16] is 28 µM (inactive); in [17], 34.4 µM (inactive); in experiment [18], 47.4 µM (inactive).
As for `CCCCCC1C2C(=O)NC(=O)C1C(=O)NC2=O` (configuration not stated), the GI50 in experiment [1] was > 100 µM (inactive); in experiment [2], > 100 µM (inactive); in experiment [4] it was > 100 µM (inactive); in experiment [5], over 100 µM; in [6] it was > 100 µM (inactive); in [19], > 100 µM (inactive). For the same molecule, the GI50 in experiment [7], in [8], in [9], in experiment [11], in experiment [12] and in experiment [14] was > 100 µM (inactive) each time. Further, the GI50 in [16], in [17] and in experiment [18] was > 100 µM (inactive) in each case.
For the molecule `O=C1/C(=C\c2ccc([N+](=O)[O-])cc2)Sc2scc(-c3ccc(O)c(O)c3)[n+]21`, the GI50 is 6.82 µM (inactive) in [1]; 2.68 µM (inactive) in [2]; 13.5 µM (inactive) in experiment [3]; 14.2 µM (inactive) in experiment [4]; 2.33 µM in [5]; 2.37 µM (inactive) in experiment [6]. Further, the GI50 in experiment [19] is 6.4 µM (inactive); in experiment [7] it was 5.11 µM (inactive); in experiment [8], 3.4 µM (inactive); in [9], 5.81 µM (inactive); in experiment [10], 9.75 µM (inactive); in experiment [11], 2.62 µM (inactive). Also, the GI50 in experiment [12] is 1.76 µM (inactive); in experiment [13], 4.84 µM (inactive); in experiment [14], 4.45 µM (inactive); in experiment [15], 5.71 µM (inactive); in experiment [17] it was 4.94 µM (inactive); in [18] it was 21.6 µM (inactive).
Take `CC1=NN(C(=O)c2ccc(Cl)cc2)C(=O)/C1=C/c1ccc(O)cc1`: the GI50 is > 100 µM (inactive) in experiment [1]; > 100 µM (inactive) in experiment [2]; > 100 µM (inactive) in experiment [4]; over 100 µM in experiment [5]; > 100 µM (inactive) in experiment [6]; > 100 µM (inactive) in [19]. For the same molecule, the GI50 in experiment [7], in experiment [8], in experiment [9], in experiment [11], in experiment [12] and in experiment [14] was > 100 µM (inactive) each time. For the same molecule, the GI50 in experiment [16], in experiment [17] and in experiment [18] was > 100 µM (inactive) each time.
On to `C=CC(C)(C)/C(=C\CO[Si](C(C)C)(C(C)C)C(C)C)C(=O)N(C)c1ccccc1I`, for which the GI50 in experiment [1] was 13.1 µM (inactive); in experiment [2], 5.79 µM (inactive); in [3] it was 13.9 µM (inactive); in experiment [4], 16 µM (inactive); in experiment [5], 16.4 µM; in experiment [6] it was 1.73 µM (inactive). The GI50 is 8.61 µM (inactive) in [19]; 15.5 µM (inactive) in [7]; 15.8 µM (inactive) in experiment [9]; 24.9 µM (inactive) in experiment [10]; 9.79 µM (inactive) in [11]; 5.62 µM (inactive) in experiment [12]. Further, the GI50 in experiment [13] is 19.5 µM (inactive); in experiment [14], 14.8 µM (inactive); in experiment [15], 2.71 µM (inactive); in experiment [16], 11.4 µM (inactive); in experiment [17], 11.5 µM (inactive); in experiment [18], 14.5 µM (inactive).
Turning to `Cc1cn(CCCC2=NCCCN2)c(=O)[nH]c1=O`, the GI50 in experiment [1] was > 100 µM (inactive); in experiment [2] it was > 100 µM (inactive); in experiment [3], > 100 µM (inactive); in [4], > 100 µM (inactive); in experiment [5], over 100 µM; in [19], > 100 µM (inactive). Further, the GI50 in experiment [7], in [8], in experiment [9], in experiment [10], in experiment [11] and in experiment [12] was > 100 µM (inactive) in each case. The GI50 in experiment [13], in experiment [14], in experiment [15], in [16], in [17] and in [18] was > 100 µM (inactive) throughout.
Turning to `Cc1cc(C)nc(NS(=O)(=O)c2ccc(NC(=O)c3cccc4c(Nc5ccc(S(N)(=O)=O)cc5)c5ccccc5nc34)cc2)n1`, the GI50 is > 100 µM (inactive) in experiment [1]; 6.82 µM (inactive) in experiment [2]; > 100 µM (inactive) in [4]; over 100 µM in [5]; 7.4 µM (inactive) in experiment [6]; 20.7 µM (inactive) in [19]. Further, the GI50 in [7] was 4.24 µM (inactive); in [8], 7.85 µM (inactive); in experiment [9], > 82.6 µM (inactive); in experiment [11], 6.71 µM (inactive); in experiment [12], 13 µM (inactive); in experiment [14], 30.3 µM (inactive). The GI50 in [16] was 11.2 µM (inactive); in [17], 6.59 µM (inactive); in [18] it was 4.02 µM (inactive).
Turning to `COc1ccc2c(c1)[n+]([O-])c(C(=O)CC(=O)C(=O)Nc1cccc(Cl)c1C)c(C)[n+]2[O-]`, the GI50 in experiment [1] is > 100 µM (inactive); in experiment [2], 21.7 µM (inactive); in experiment [4], > 100 µM (inactive); in experiment [5], over 100 µM; in experiment [6], 44.5 µM (inactive); in experiment [19], > 100 µM (inactive). The GI50 in experiment [7] was > 100 µM (inactive); in experiment [8], 60.7 µM (inactive); in experiment [9] it was > 100 µM (inactive); in [11], 49.4 µM (inactive); in experiment [12], 26.2 µM (inactive); in [14], > 100 µM (inactive). For the same molecule, the GI50 in [16], in [17] and in experiment [18] was > 100 µM (inactive) in each case.
With `COC(=O)C1=C(c2ccc(Cl)cc2)C(O)NC(NN)=N1` (configuration not stated), the GI50 in experiment [1] was > 100 µM (inactive); in experiment [2], > 100 µM (inactive); in experiment [4], > 100 µM (inactive); in experiment [5], over 100 µM; in [6], > 100 µM (inactive); in experiment [19], > 100 µM (inactive). Also, the GI50 in [7], in experiment [8], in experiment [9], in [11], in experiment [12] and in experiment [14] was > 100 µM (inactive) throughout. Moreover, the GI50 in experiment [16], in [17] and in experiment [18] was > 100 µM (inactive) each time.
